Tests used:
[1] = test system: ulcerative proctosigmoiditis; assay type: in vivo, patients
Experimental: For patients maintained on SAZ (1 g b.i.d.) this treatment was kept unchanged throughout the trial. No other drugs were given.
(§1) The study was carried out as a block-randomized, double-blind trial. Before entry, clinical disease activity was assessed, and equilibrium in vivo dialysis of rectum was performed before the assessment of endoscopic and histologic disease activity. […] Primary stratification was done for patients already on maintenance treatment with SAZ. At day 15 the equilibrium in vivo dialysis of rectum was repeated, and clinical, endoscopic, and histologic activities were reassessed. Patients in complete clinical and endoscopic remission discontinued treatment with enemas, whereas the remainder continued therapy for another 14 days. In all cases equilibrium in vivo dialysis of rectum and assessment of disease activity were repeated at day 29. Withdrawal criteria included intolerance to treatment or deterioration (severe disease, C3) requiring systemic glucocorticoids.
The clinical activity was based on a diary in which the number of bowel movements and the presence or absence of blood were registered by the patient and the objective findings were registered by the investigator. To minimize variation among observers each patient was examined on all study days by the same investigator, who was unaware of the results of the rectal dialyses.

PGE2 = assay: Equilibrium in vivo dialysis of rectum with radioimmunoassay of PGE2 (enema trial); design: species or system patients; conditions: for Concentrations of PGE2 in rectal lumen: median, enema groups irrespective of SAZ (+/-), SAZ line = no enema, with SAZ maintenance; for effect of treatment with enemas on PGE2 concentrations in the rectal lumen: whole group, active UC, 2-4 weeks, 5-ASA p>0.5, prednisolone p<0.05 (Wilcoxon)
Experimental: as §1
In vivo dialysis of rectum was performed after insertion of a 12-cm-long dialysis bag (volume 4 ml; Visking seamless cellulose tubing 8/32 filled with Rheomacrodex@; Pharmacia, Uppsala, Sweden) containing 10% dextran (mean mol wt 40,000) in saline into the emptied rectum. To obtain equilibrium with the fluid covering the surface of rectal mucosa, the dialysis bag was left for 4 h before its contents were emptied into a test tube, which was stored immediately at -20°C (rectal dialysate) for analysis within 2 wk.
Prostaglandin E2 was measured as previously described in detail (K. Bukhave, J. Rask-Madsen J, 'Prostaglandin E2 in jejunal fluids and its potential diagnostic value for selecting patients with indomethacin-sensitive diarrhoea', 1981 European Journal of Clinical Investigation, 11:191-7) by a radioimmunologic method validated by gas chromatography-mass spectrometry (K. Bukhave, K Green, J. Rask-Madsen, 'Comparison of radioimmunological determinations with gas chromatography mass spectrometry dosage', 1983 Biomedical Mass Spectrometry, 10:265-8). The method included purification by extraction with ethylacetate/cyclo- hexane (1:1) and chromatography on microcolumns of Sephadex LH-20 (Pharmacia AB, Sweden) before performing the radioimmunoassay itself on the eluate fraction containing PGE2.

[2] = number of patients, enemas once daily 2-4 wk, 5-ASA n=13, prednisolone n=11
[3] = number of these patients on additional SAZ maintenance (figure in brackets)
[4] = clinical activity 2-3 (moderate-severe)
[5] = endoscopic activity 0 (inactive)
[6] = endoscopic activity 2 (moderate)

Nc1ccc(O)c(C(=O)O)c1 [5-ASA, 5-amino-salicylic acid]
difficulties in retaining the enemas ([1]; human, in vivo): 2
Outcome of treatment: Unchanged or worse [1, 2]: 6
Outcome of treatment: Unchanged or worse (on sulfasalazine) [1, 3]: 3
Concentrations of PGE2 in rectal lumen (PGE2; clinical activity 0 (inactive)): 0.71(n=7) (0.18-6.0) ng/ml
Concentrations of PGE2 in rectal lumen (PGE2; clinical activity 1 (mild)): 24(n=5) (2.5-58) ng/ml
Concentrations of PGE2 in rectal lumen (PGE2; [4]): 33(n=8) (14-120) ng/ml
Concentrations of PGE2 in rectal lumen (PGE2; [5]): 0.75(n=3) (0.18-3.7) ng/ml
Concentrations of PGE2 in rectal lumen (PGE2; endoscopic activity 1 (mild)): 5.5(n=4) (0.29-6.2) ng/ml
Concentrations of PGE2 in rectal lumen (PGE2; [6]): 24(n=8) (2.5-58) ng/ml
Concentrations of PGE2 in rectal lumen (PGE2; endoscopic activity 3 (severe)): 31(n=5) (20-120) ng/ml
PGE2 levels in the rectal lumen (PGE2; only those patients responding to treatment): decreased toward control levels
effect of treatment with enemas on PGE2 concentrations in the rectal lumen (PGE2): No significant effects

C[C@]12C=CC(=O)C=C1CC[C@@H]1[C@@H]2[C@@H](O)C[C@@]2(C)[C@H]1CC[C@]2(O)C(=O)CO [Prednisolone, prednisolone]
Outcome of treatment: Clinical and endoscopic remission ([1]; number of patients, enemas once daily 2-4 wk, 5-ASA 1000 mg (n=13), prednisolone 25 mg (n=11)): 8
Outcome of treatment: Clinical but not endoscopic remission [1, 2]: 1 (1)
Outcome of treatment: Unchanged or worse [1, 2]: 2 (2)
Outcome of treatment: Clinical and endoscopic remission (on SAZ) ([1]; number of these patients on additional SAZ maintenance 2 g/day (figure in brackets)): 3
Outcome of treatment: Clinical but not endoscopic remission (on SAZ) [1, 3]: 1 (1)
Outcome of treatment: Unchanged or worse (on sulfasalazine) [1, 3]: 2 (2)
Concentrations of PGE2 in rectal lumen (PGE2; clinical activity 0 (inactive)): 1.6(n=9) (0.16-5.0) ng/ml
Concentrations of PGE2 in rectal lumen (PGE2; clinical activity 1 (mild)): 5.4(n=6) (0.58-42) ng/ml
Concentrations of PGE2 in rectal lumen (PGE2; [4]): 9.5(n=3) (5.9-12) ng/ml
Concentrations of PGE2 in rectal lumen (PGE2; [5]): 0.82(n=8) (0.16-5.0) ng/ml
Concentrations of PGE2 in rectal lumen (PGE2; endoscopic activity 1 (mild)): 2.8(n=7) (0.57-3.9) ng/ml
Concentrations of PGE2 in rectal lumen (PGE2; [6]): 10.5(n=3) (5.5-42) ng/ml
effect of treatment with enemas on PGE2 concentrations in the rectal lumen (PGE2): inhibited PGE2 concentrations significantly
